Patent publication US9126993B2, “Glucosylceramide synthase inhibitors” (GENZYME CORPORATION, priority 2011, dated 2015)
“Also recorded” adds a separate entry of the source.

Key:
K14 mice [1] = assay: Brain histopathology (CD68, F4/80, GFAP staining) in K14 mice; type: in vivo, mouse; settings: daily IP from P4, staining at P10, vs vehicle
Method: After genotype confirmation, animals were humanely sacrificed at 10 days of age, At this age K14 mice are asymptomatic. Mice received an intraperitoneal injection of 150 mg/kg sodium pentobarbital ((Euthasol, Virbac Inc, Fort Worth, Tex.) and were perfused by an intracardial infusion of chilled 0.9% sodium chloride. Brains were removed and post fixed in 4% paraformaldehyde for 72 hours. Tissue was transferred to PBS and paraffin embedded. Sagital sections 5 μm thick were cut and stained as described below. Gliosis and the presence of cells of the macrophage lineage were evaluated by means of glial fibrillary acidic protein staining and expression of CD68 and F4/80 pan-macrophage markers using the Leica Bond Max Immunostainer system (Leica Microsystems, Wetzlar, Germany).
GFAP staining: Paraffin sections were placed on mounting slides and processed using the Bond Polymer Refine IHC system (Leica Microsystems, Wetlzar, Germany) blocked for 10 minutes in serum-free protein block (Dako systems, Glostrup, Denmark), incubated for 30 minutes in a 1:1500 dilution of primary anti-GFAP antibody in Dako antibody diluent (Dako, Glostrup, Denmark), and stained using the Bond Polymer Refine detection kit (Leica Microsystems, Wetzlar, Germany). […]
For each staining technique exposure-matched digital images were obtained from similar brain regions of each experimental group using the Aperio ScanScope XT system (Aperio Technologies, Vista, Calif.). Stained slides were digitalized in high resolution and six areas of interest were highlighted in each slide and analyzed independently by histomorphometry. Positively stained area and nuclei were determined and quantitative data were analyzed by a one-way analysis of variance followed by Tukey's multiple comparison test using the Graph Pad Prism V 4.0 (GraphPad Software, San Diego, Calif.). […]

K14 mice [2] = assay: Brain GluCer and GluSph levels in K14 mouse model of type 2 Gaucher disease; type: in vivo
Method: Newborn mice received daily 5 mg/kg intraperitoneal injections of Quinuclidin-3-yl(2-(4′-fluoro-[1, l′-biphenyl]-3-yl)propan-2-yl)carbamate (hereinafter “GZ 161”) in a volume of 10 μl/gram of body weight starting at postnatal day 4. K14 mice and wild type littermates were humanely sacrificed at postnatal day 10 (pre-symptomatic) and at day 14 (humane endpoint) to evaluate glycosphingolipid (GSL) levels. Mice received a 150 mg/kg dose of pentobarbital (Euthasol, Virbac Inc, Fort Worth, Tex.) and were transcardially perfused with cold 0.9% NaCl solution. Brains were dissected and divided; one hemisphere was used for GSL analysis and the other was fixed in 4% paraformaldehyde for 96 hours and processed for histology.
(§1) Quantitative sphingolipid analysis was performed by liquid chromatography and tandem mass spectrometry (LC/MS/MS) as previously described in Merrill et al., Methods 36: 207-224 (2005). Briefly, 10 μl of brain tissue homogenate (tissue weight/water:100 mg/ml) was extracted with 1.00 ml of an organic solvent mixture (97% acetonitrile, 2% methanol, and 1% acetic acid, v/v) and vortexed vigorously for 10 min. Extracted sphingolipids (GluCer and GluSph) were directly separated by hydrophilic liquid chromatography (Atlantis HILIC column, Waters Corp.) and analyzed by triple quadrupole tandem mass spectrometry (API 4000, Applied Biosystems/MDS SCIEX) and compared with sphingolipid standards (Matreya, LLC; Pleasant Gap, Pa.)

K14 mice [3] = assay: Survival of K14 mice; type: in vivo, mouse; settings: GZ 161 5 mg/kg IP daily from P4, combination: plus ICV rhGC at P1, 2, 3
Method: (§2) To determine if further benefits could be achieved by prenatal exposure to GZ 161, a subset of pregnant K14 females received GZ 161 in food using a formulation calculated to provide 20 mg/kg/day during the final 5-7 days of gestation. Females receiving GZ 161 were switched to standard diet after delivery and the pups received daily IP injections of GZ 161 at a dose of 5 mg/kg (10 μl per gram of body weight) starting at P 1. A set of WT pups born to females receiving the drug or standard formula was sacrificed immediately after birth to determine whether in utero exposure to GZ 161 could reduce brain GSL levels.
An animal model of neuropathic Gaucher disease (nGD) identified as K14 were cryoanesthesized and received 2 μl bilateral intracerebroventricular (ICV) injections of either rhGC at 2 mg/ml or vehicle as previously described. (Cabrera-Salazar et al. (2010)) The injected pups were monitored for recovery and returned to the mother following the procedure.
K14 mice received daily intraperitoneal injections of GZ 161 at a dose of 5 mg/kg of body weight as described above. A separate cohort of animals also received ICV injections of GC at postnatal days 1, 2 and 3 followed by daily IP injections of GZ 161. […] All animals were monitored daily for the development of neurological complications. […] This time point was recorded as end of life and analyzed using Kaplan-Meier plots. […]

WT mice = assay: In utero exposure: brain GluCer in newborn WT mice; type: in vivo, mouse
Method: as §2, §1
Values shown correspond to means and error bars represent standard error of the mean. Comparisons between groups were analyzed by a one-way analysis of variance followed by Tukey's multiple comparison test. Comparison of substrate reduction in utero was analyzed by the unpaired t test with Welch's correction. Kaplan-Meier survival curves were analyzed using the log-rank test equivalent to the Mantel-Haenszel test. All statistical analyses were performed using GraphPad Prism v4.0 (GraphPad Software, San Diego, Calif.). Differences between group means with p<0.05 were considered significant.

[4] = K14 mice, 5 mg/kg IP daily from P4, brains analyzed at P10
[5] = daily IP, compared to vehicle-treated K14 mice at the humane endpoint (14-15 days of age)

## CC(C)(NC(=O)OC1CN2CCC1CC2)c1cccc(-c2ccc(F)cc2)c1 (stereo not shown) [GZ 161, Quinuclidin-3-yl(2-(4′-fluoro-[1,1′-biphenyl]-3-yl)propan-2-yl)carbamate]
K14 mice [1]
  CD68+ cells in brain (hippocampus, thalamus, brainstem, cerebellum): reduces the numbers of CD68+ cells in all of these locations; also recorded: significant reductions the CD68+ cells in all brain regions
  F4/80+ cells in brain: reduced the numbers of F4/80+ cells in the thalamus and brainstem, but had marginal effects in other brain regions; also recorded: significant reductions the F4/80+ cells in the thalamus and brainstem
  GFAP staining (gliosis) in brain: decreased GFAP staining in the hippocampus and cerebellum; also recorded: significant reductions the GFAP+ cells in the hippocampus and cerebellum
K14 mice [2]; [4]
  brain GluCer level reduction: ~70%
  brain GluSph level reduction: ~60%
K14 mice [2]; [5]
  brain GluCer level reduction: > 60%
  brain GluSph level reduction: > 60%
K14 mice [2]; daily IP, time point of brain analysis
  symptom status of treated K14 mice: asymptomatic
K14 mice [2]; inferred from reduction of brain glycosphingolipids after systemic (IP) administration
  crossing the blood brain barrier: capable of crossing the blood brain barrier
K14 mice [3]
  median lifespan: 18 days
WT mice; WT dams treated, 20 mg/kg/day in food
  decrease in GluCer levels in the newborn mouse brain (P0): ~5 fold
WT mice; inferred from reduced GluCer in newborn brain after dosing pregnant WT mice
  crossing the blood/placental barrier: appears to cross the blood/placental barrier
WT mice; pregnant WT mice, 20 mg/kg/day in food
  GluCer load in whole brain homogenates at birth (P0): reduces the GluCer load
